SMILES strings stand for the structures. Where a SMILES comes first, the peptide text is derived from it. Bridges are numbered along the chain shown (N, C = ends).

This is an account of results in US5770565A, “Peptides for reducing or inhibiting bone resorption” (priority 1994, dated 1998).

The test system of assay [1] is αV β3 integrin, osteoclasts. As to the kind of experiment: series of assays of Example II for potency and selectivity (summary, FIG. 2). An excerpt: Peptides of the RGDNTic (SEQ ID NO: 56) pharmacophore group are characterized, in general, as having increased potency, whereas the peptides of the pharmacophore RGDDV (SEQ ID NO: 1) group generally have higher receptor selectivity. […] As used herein, the term "potency" or "potent" means that a peptide of the invention is active at a relatively low concentration in the assays described in Examples II and III. A potent peptide of the invention can be identified, for example, using the assays described in Examples II and III.
Selectivity can be due, for example, to the ability of a peptide of the invention to bind to αV β3 with greater affinity than it binds to other integrins. Thus, in addition to having selectivity, for example, for osteoclast binding to a matrix, a peptide of the invention also can display receptor selectivity and, therefore, more specifically alter receptor-mediated binding to a matrix. As used herein, the term "receptor selectivity" means that a peptide of the invention can bind to one receptor with greater affinity than it can bind to another receptor.

Another assay has as its system Swiss-Webster mice. Briefly: PTH-induced hypercalcemia assay. In kind it is in vivo. The note with it: single dose, infused 4 hr after PTH. An excerpt: Parathyroid hormone (PTH) activates osteoclasts, which are involved in bone resorption. Associated with the increased osteoclast activity is an increase in serum calcium. The PTH-induced hypercalcemia assay measures the level of serum calcium, which is an indication of bone resorption in a subject (Fischer et al., Endocrinology 132:1411-1413 (1993), which is incorporated herein by reference).
Swiss-Webster mice, which had been parathyroidectomized two weeks prior to beginning the assay, were obtained from Taconic Lab Animals and Services (Germantown N.Y.). Femoral vein catheters (PE-50 fused with PE10 polyethylene tubing; Becton Dickinson; Parsippany, N.J.) were installed in the mice, flushed and locked with heparinized saline (1:10), sutured to adjacent muscle and internalized within the inguinal space of the incision before closing the incision with wound clips. […]
The experiment was initiated by feeding the mice a calcium-deficient diet overnight, then injecting the mice the following morning with a bolus of 0.2 mg PTH/kg (hPTH 1-34; Bachem; Torrance Calif.), intravenously. […] Various doses of a peptide or vehicle were infused into an animal for 4 hr, then ionized serum calcium again was measured. […] Serum calcium measurements were expressed as the difference between the value 30 min before the PTH pulse and 4 hr after peptide infusion was started. […]

For a further assay, the system named is rat osteoclasts. Briefly: rat osteoclast attachment assay compared with MG63 or NRK cell attachment. In kind it is cell-based. To be noted: FCS substrate, FIGS. 7 and 8. How it is done: To determine the effect of a peptide on the attachment of rat osteoclasts in vitro, 100 μl aliquots of the rat pup bone cell suspension described in Example II.B.2., above, were added in triplicate to 96 well "MAXISORP" plates coated with specific substrates or with FCS. Substrate coated plates were used to determine the ability of peptides to inhibit attachment or induce detachment of an osteoclast from a ligand such as vitronectin, fibronectin, osteopontin or collagen I (Collaborative Research), which are ligands present in bone. Substrates were added to 96 well plates (50 μl of a 5-10 μg/ml solution in sodium carbonate, pH 9.5) and incubated for 2 hr at 37° C. For FCS control wells, 100 μl 10% FCS was added. Wells were aspirated, then washed 2×with PBS and blocked with 1% bovine serum albumin in PBS for 2 hr at 37° C. Wells were aspirated and washed again 2× with PBS. Cells were seeded in duplicate at 4×10^4 cells/well. […]
Following incubation, the medium and nonadherent cells were removed by aspiration from each well. […] Adherent osteoclasts were counted by light microscopy. […]
MG63 and NRK cell lines were purchased from ATTC (Rockville Md.). […] Following staining, the stain was extracted with 20% acetic acid and the OD562 of the extracted stain was determined. […]
Selectivity of a peptide can be determined by comparing the results of FIGS. 7 and 8 (see, also FIG. 2).

The next assay deals with chick osteoclasts. As to the kind of experiment: chick osteoclast / total cell detachment assay. In kind it is cell-based. The note with it: FIG. 5. How it is done:
Peptides were evaluated for their ability to detach osteoclasts from a matrix consisting of serum-coated microtiter plates. In prescreening assays, 5 μM of the various RGD peptides was used to identify RGD peptides that released at least 60% of the osteoclasts from the matrix.
Osteoclasts were isolated from embryonic chicks using a modification of the methods of Boyde et al., Br. Dent. J. 156:216 (1984) and Chambers et al., Endocrinology 116:234 (1985), each of which is incorporated herein by reference. […]
The cells were incubated for 90 min at 37° C. in an atmosphere containing 10% CO2. […] Cell layers were stained for 5 min using 0.1% crystal violet and multinucleated osteoclasts were counted by light microscopy. […]
RGD peptides that are selective for releasing osteoclasts, but not the other cell types, from the matrix were identified by extracting the crystal violet stain from fixed cells and comparing the amount of staining in a control well (no peptide) with the amount of staining following incubation of the cells with an RGD peptide. Crystal violet was extracted using 20% acetic acid and the optical density of the resulting solution was measured in 96 well microtiter plates by spectrophotometry at 562 nm. […]

Turning to `CC(C)[C@@H]1NC(=O)[C@H](CC(=O)O)NC(=O)[C@H](CC(=O)O)NC(=O)CNC(=O)[C@H](CCCNC(=N)N)NC(=O)CC[C@@H](C(N)=O)NC1=O` [peptide 386, RGDDVE-NH2] (RGDDVE-NH2; lactam N-6), in assay [1], the “potency and selectivity together (summary classification)” value is “both potent and selective”; the “receptor selectivity (summary classification)” value is reported as “particularly receptor selective”. The “activity of peptides with minimally essential elements” value in assay [1] (FIG. 2) was “demonstrate activity”. The serum calcium level result with Swiss-Webster mice is listed as “relatively low level of serum calcium”. Moreover, in the assay with rat osteoclasts, the “selectivity: osteoclast attachment versus MG63 or NRK attachment” value is “selective”. Besides, the “selective detachment of osteoclasts as compared to other cell types” value in the assay on chick osteoclasts is recorded as “selective detachment of osteoclasts”.
